Test results: ChEMBL document CHEMBL4483862, “Open-source discovery of chemical leads for next-generation chemoprotective antimalarials” (2018)

System: Plasmodium berghei
Test: Luciferase/luciferin-expressing antifolate-resistant parasites were used to infect a culture of HepG2 cells that were pre-incubated with compounds. Infected hepatocytes emit light due to the luciferase reaction. Assay results are presented as the percent inhibition of light emission compared to control. […]
Assay type: functional
Conditions: sporozoite; for IC90: read-out: LUCIFERASE INFECTION ASSAY - IC90

Row | SMILES | IC90 | other results
1 | Cc1ccccc1OCc1occc1C(=O)Nc1cccc(-n2cnnn2)c1 | 6.83 µM | IC50 (HEPG2TOX_HILL_SLOPE 2.96, HEPG2TOX_R_SQUARED 0.854, PBLUC_HILL_SLOPE 2.81, PBLUC_R_SQUARED 0.577, read-out: LUCIFERASE INFECTION ASSAY - IC50): 3.12 µM
2 | COc1cc(/C=C2\COC/C(=C\c3cc(OC)c(OC)c(OC)c3)C2=O)cc(OC)c1OC | 0.888 µM | IC50 (HEPG2TOX_HILL_SLOPE 2.96, HEPG2TOX_R_SQUARED 0.98, PBLUC_HILL_SLOPE 14, PBLUC_R_SQUARED 0.753, read-out: LUCIFERASE INFECTION ASSAY - IC50): 0.759 µM
3 | CC(=O)c1cccc(-c2ccnc3c2CC(C(=O)NCCc2ccccc2)O3)c1 (centres undefined) | 5.14 µM | IC50 (HEPG2TOX_HILL_SLOPE 2.91, HEPG2TOX_R_SQUARED 0.95, PBLUC_HILL_SLOPE 2.2, PBLUC_R_SQUARED 0.478, read-out: LUCIFERASE INFECTION ASSAY - IC50): 1.89 µM
4 | COc1ccc(NC(=O)C2(C)Cc3c(-c4cccc(NC(C)=O)c4)ccnc3O2)cc1 (centres undefined) | 3.58 µM | IC50 (HEPG2TOX_HILL_SLOPE 2.96, HEPG2TOX_R_SQUARED 0.838, PBLUC_HILL_SLOPE 2.85, PBLUC_R_SQUARED 0.605, read-out: LUCIFERASE INFECTION ASSAY - IC50): 1.66 µM
5 | O=C1C=C/C(=N\Nc2ccc3c(c2)OCCO3)c2cccnc21 | 3.95 µM | IC50 (HEPG2TOX_HILL_SLOPE 2.89, HEPG2TOX_R_SQUARED 0.923, PBLUC_HILL_SLOPE 13, PBLUC_R_SQUARED 0.601, read-out: LUCIFERASE INFECTION ASSAY - IC50): 3.33 µM
6 | O=C(c1[nH]nc2ccccc12)N1CCN(Cc2ccc(C(F)(F)F)cc2)CC1 | > 10 µM | IC50 (HEPG2TOX_HILL_SLOPE 2.95, HEPG2TOX_R_SQUARED 0.96, PBLUC_HILL_SLOPE 4.05, PBLUC_R_SQUARED 0.587, read-out: LUCIFERASE INFECTION ASSAY - IC50): 6.61 µM
7 | Cc1cccc(OCCCC(=O)Nc2cc(C)n[nH]2)c1 | 1.35 µM | IC50 (HEPG2TOX_HILL_SLOPE 2.94, HEPG2TOX_R_SQUARED 0.896, PBLUC_HILL_SLOPE 6.3, PBLUC_R_SQUARED 0.571, read-out: LUCIFERASE INFECTION ASSAY - IC50): 0.951 µM
8 | CCOc1ccc(S(=O)(=O)Nc2cc3c(C(=O)OC(C)C)c(C)oc3c3ccccc23)cc1 | 2.86 µM | IC50 (HEPG2TOX_HILL_SLOPE 2.94, HEPG2TOX_R_SQUARED 0.937, PBLUC_HILL_SLOPE 3.2, PBLUC_R_SQUARED 0.642, read-out: LUCIFERASE INFECTION ASSAY - IC50): 1.44 µM
9 | Nc1nccnc1C(=O)NNC(=O)c1cc2c(s1)CCCCCC2 | 3.7 µM | IC50 (HEPG2TOX_HILL_SLOPE 2.95, HEPG2TOX_R_SQUARED 0.777, PBLUC_HILL_SLOPE 11, PBLUC_R_SQUARED 0.184, read-out: LUCIFERASE INFECTION ASSAY - IC50): 3.03 µM
10 | Cc1nn(Cc2ccccc2Cl)c(C)c1CN(C)C(=O)/C=C/c1cnn(-c2ccccc2)c1 | 9.8 µM | IC50 (HEPG2TOX_HILL_SLOPE 2.95, HEPG2TOX_R_SQUARED 0.991, PBLUC_HILL_SLOPE 3.77, PBLUC_R_SQUARED 0.729, read-out: LUCIFERASE INFECTION ASSAY - IC50): 5.47 µM
11 | O=C(/C=C/c1ccco1)Nc1ccc(Cl)c(Cl)c1 | 11.3 µM | IC50 (HEPG2TOX_HILL_SLOPE 2.91, HEPG2TOX_R_SQUARED 0.987, PBLUC_HILL_SLOPE 6.61, PBLUC_R_SQUARED 0.512, read-out: LUCIFERASE INFECTION ASSAY - IC50): 8.1 µM
12 | Cc1cccc2c(=O)nc(CSc3ncnc4sc(-c5ccccc5)cc34)[nH]c12 | > 10 µM | IC50 (HEPG2TOX_HILL_SLOPE 2.96, HEPG2TOX_R_SQUARED 0.569, read-out: LUCIFERASE INFECTION ASSAY - IC50): > 10 µM
13 | Cn1cnc2cnc(Nc3ccc(F)c(Cl)c3)cc21 | > 10 µM | IC50 (HEPG2TOX_HILL_SLOPE 2.92, HEPG2TOX_R_SQUARED 0.693, read-out: LUCIFERASE INFECTION ASSAY - IC50): > 10 µM
14 | COc1ccc(OC)c(CCNc2nc3cnc(-c4ccc5c(c4)OCO5)cc3n2C)c1 | 2.5 µM | IC50 (HEPG2TOX_HILL_SLOPE 2.94, HEPG2TOX_R_SQUARED 0.93, PBLUC_HILL_SLOPE 1.47, PBLUC_R_SQUARED 0.742, read-out: LUCIFERASE INFECTION ASSAY - IC50): 0.558 µM
15 | CCOC(=O)c1sc2ncnc(NCCC(O)(c3ccc(C)o3)C(F)(F)F)c2c1C (centres undefined) | 3.68 µM | IC50 (HEPG2TOX_HILL_SLOPE 2.98, HEPG2TOX_R_SQUARED 0.521, PBLUC_HILL_SLOPE 13.8, PBLUC_R_SQUARED 0.46, read-out: LUCIFERASE INFECTION ASSAY - IC50): 3.14 µM
16 | CCOc1ccc(C(C)=O)cc1CSc1nc2ccccc2c(=O)n1C(C)COC (centres undefined) | 3.98 µM | IC50 (HEPG2TOX_HILL_SLOPE 2.93, HEPG2TOX_R_SQUARED 0.419, PBLUC_HILL_SLOPE 1.84, PBLUC_R_SQUARED 0.699, read-out: LUCIFERASE INFECTION ASSAY - IC50): 1.21 µM

Row | SMILES | IC90 | other results
17 | COc1ccc(N(Cc2nc(-c3cccs3)oc2C)S(=O)(=O)c2cccs2)cc1 | 0.446 µM | IC50 (HEPG2TOX_HILL_SLOPE 2.9, HEPG2TOX_R_SQUARED 0.761, PBLUC_HILL_SLOPE 1.87, PBLUC_R_SQUARED 0.806, read-out: LUCIFERASE INFECTION ASSAY - IC50): 0.137 µM
18 | CNc1ccccc1C(=O)N/N=C/c1cc(Cl)cc(Cl)c1O | > 9.76 µM | IC50 (HEPG2TOX_HILL_SLOPE 2.97, HEPG2TOX_R_SQUARED 0.147, PBLUC_HILL_SLOPE 9.98, PBLUC_R_SQUARED 0.459, read-out: LUCIFERASE INFECTION ASSAY - IC50): > 9.76 µM
19 | C/C=C/c1ccc(Oc2nc(C(F)(F)F)nc3ccccc23)c(OC)c1 | 6.79 µM | IC50 (HEPG2TOX_HILL_SLOPE 2.94, HEPG2TOX_R_SQUARED 0.97, PBLUC_HILL_SLOPE 2.81, PBLUC_R_SQUARED 0.724, read-out: LUCIFERASE INFECTION ASSAY - IC50): 3.1 µM
20 | O=C(NC1CC1)c1csc(C(O)c2cccc(C(F)(F)F)c2)n1 (centres undefined) | 1.14 µM | IC50 (HEPG2TOX_HILL_SLOPE 2.89, HEPG2TOX_R_SQUARED 0.879, PBLUC_HILL_SLOPE 2.14, PBLUC_R_SQUARED 0.663, read-out: LUCIFERASE INFECTION ASSAY - IC50): 0.408 µM
21 | CCCN(CC(=O)Nc1ccc(Cl)cc1Cl)C(=O)c1cn2ccccc2n1 | > 10 µM | IC50 (HEPG2TOX_HILL_SLOPE 2.93, HEPG2TOX_R_SQUARED 0.207, PBLUC_HILL_SLOPE 1.46, PBLUC_R_SQUARED 0.174, read-out: LUCIFERASE INFECTION ASSAY - IC50): > 10 µM
22 | O=C(Nc1nc(CN2CCCC2)cs1)c1ccc(-c2ccccc2)cc1 | > 10 µM | IC50 (HEPG2TOX_HILL_SLOPE 2.9, HEPG2TOX_R_SQUARED 0.919, read-out: LUCIFERASE INFECTION ASSAY - IC50): > 10 µM
23 | Oc1cccc(-c2cnc3cnc(-c4ccccc4Cl)cn23)c1 | > 10.3 µM | IC50 (HEPG2TOX_HILL_SLOPE 2.92, HEPG2TOX_R_SQUARED 0.924, PBLUC_HILL_SLOPE 1.11, PBLUC_R_SQUARED 0.809, read-out: LUCIFERASE INFECTION ASSAY - IC50): 1.72 µM
24 | Cn1c(-c2ccccc2)nc2cnc(Nc3cccc(OC(F)(F)F)c3)cc21 | 2.38 µM | IC50 (HEPG2TOX_HILL_SLOPE 2.98, HEPG2TOX_R_SQUARED 0.826, PBLUC_HILL_SLOPE 1.94, PBLUC_R_SQUARED 0.665, read-out: LUCIFERASE INFECTION ASSAY - IC50): 0.764 µM
25 | COc1ccc(CN2CCN(C(=O)c3ccc(-n4cccn4)cc3)CC2)cc1F | > 10 µM | IC50 (HEPG2TOX_HILL_SLOPE 2.97, HEPG2TOX_R_SQUARED 0.899, PBLUC_HILL_SLOPE 2, PBLUC_R_SQUARED 0.568, read-out: LUCIFERASE INFECTION ASSAY - IC50): 3.44 µM
26 | CCCOc1c(Cl)cc(C(=O)Nc2nonc2-c2cccs2)cc1Cl | 2.87 µM | IC50 (HEPG2TOX_HILL_SLOPE 2.94, HEPG2TOX_R_SQUARED 0.74, PBLUC_HILL_SLOPE 28.4, PBLUC_R_SQUARED 0.116, read-out: LUCIFERASE INFECTION ASSAY - IC50): 2.66 µM
27 | Cc1n[n+]2c3c(cnc2s1)CC/C3=C/c1ccccc1 | 9.79 µM | IC50 (HEPG2TOX_HILL_SLOPE 2.96, HEPG2TOX_R_SQUARED 0.5, PBLUC_HILL_SLOPE 7.3, PBLUC_R_SQUARED 0.698, read-out: LUCIFERASE INFECTION ASSAY - IC50): 7.25 µM
28 | Cc1ccc(C(=O)Nc2nc3ccccn3c2C(=O)NC2CCCCC2)cc1 | 1.16 µM | IC50 (HEPG2TOX_HILL_SLOPE 2.97, HEPG2TOX_R_SQUARED 0.276, PBLUC_HILL_SLOPE 14.7, PBLUC_R_SQUARED 0.56, read-out: LUCIFERASE INFECTION ASSAY - IC50): 1 µM
29 | COc1ccc(CNc2nc(C)nc3scc(-c4cccs4)c23)cn1 | > 10 µM | IC50 (HEPG2TOX_HILL_SLOPE 2.96, HEPG2TOX_R_SQUARED 0.967, read-out: LUCIFERASE INFECTION ASSAY - IC50): > 10 µM
30 | CC(C)NC(=O)N1CCc2nc(NCc3cccc(Oc4ccccc4)c3)ncc2C1 | 3.31 µM | IC50 (HEPG2TOX_HILL_SLOPE 2.9, HEPG2TOX_R_SQUARED 0.984, PBLUC_HILL_SLOPE 15.1, PBLUC_R_SQUARED 0.233, read-out: LUCIFERASE INFECTION ASSAY - IC50): 2.86 µM
31 | CC(=O)Nc1ccc(-c2cnc3ccc(-c4ccccc4)nn23)cc1 | 3.8 µM | IC50 (HEPG2TOX_HILL_SLOPE 2.97, HEPG2TOX_R_SQUARED 0.938, PBLUC_HILL_SLOPE 2.21, PBLUC_R_SQUARED 0.595, read-out: LUCIFERASE INFECTION ASSAY - IC50): 1.4 µM
32 | CN(C)CCNc1cc(-c2ccco2)nc2ccccc12 | 9.18 µM | IC50 (HEPG2TOX_HILL_SLOPE 2.93, HEPG2TOX_R_SQUARED 0.885, PBLUC_HILL_SLOPE 3.51, PBLUC_R_SQUARED 0.62, read-out: LUCIFERASE INFECTION ASSAY - IC50): 4.91 µM
